≈ marks a conversion by molar mass, not a printed value.
Assays:
Leishmania donovani = assay: Antileishmanial activity against Leishmania donovani promastigotes assessed as parasite growth inhibition incubated for 72 hrs by Alamar blue assay; format: functional, organism-based
MCF7 = assay: Cytotoxicity against human MCF7 cells assessed as cell growth inhibition; format: functional, cell-based
HepG2 = assay: Cytotoxicity against human HepG2 cells assessed as cell growth inhibition; format: functional, cell-based
NCI-H460 = assay: Cytotoxicity against human NCI-H460 cells assessed as cell growth inhibition; format: functional, cell-based
SF-268 = assay: Cytotoxicity against human SF-268 cells assessed as cell growth inhibition; format: functional, cell-based
[1] = molecular target: Telomerase reverse transcriptase (Homo sapiens, UniProt O14746); assay: Inhibition of human telomerase
Telomerase reverse transcriptase, sequence (O14746 whole entry): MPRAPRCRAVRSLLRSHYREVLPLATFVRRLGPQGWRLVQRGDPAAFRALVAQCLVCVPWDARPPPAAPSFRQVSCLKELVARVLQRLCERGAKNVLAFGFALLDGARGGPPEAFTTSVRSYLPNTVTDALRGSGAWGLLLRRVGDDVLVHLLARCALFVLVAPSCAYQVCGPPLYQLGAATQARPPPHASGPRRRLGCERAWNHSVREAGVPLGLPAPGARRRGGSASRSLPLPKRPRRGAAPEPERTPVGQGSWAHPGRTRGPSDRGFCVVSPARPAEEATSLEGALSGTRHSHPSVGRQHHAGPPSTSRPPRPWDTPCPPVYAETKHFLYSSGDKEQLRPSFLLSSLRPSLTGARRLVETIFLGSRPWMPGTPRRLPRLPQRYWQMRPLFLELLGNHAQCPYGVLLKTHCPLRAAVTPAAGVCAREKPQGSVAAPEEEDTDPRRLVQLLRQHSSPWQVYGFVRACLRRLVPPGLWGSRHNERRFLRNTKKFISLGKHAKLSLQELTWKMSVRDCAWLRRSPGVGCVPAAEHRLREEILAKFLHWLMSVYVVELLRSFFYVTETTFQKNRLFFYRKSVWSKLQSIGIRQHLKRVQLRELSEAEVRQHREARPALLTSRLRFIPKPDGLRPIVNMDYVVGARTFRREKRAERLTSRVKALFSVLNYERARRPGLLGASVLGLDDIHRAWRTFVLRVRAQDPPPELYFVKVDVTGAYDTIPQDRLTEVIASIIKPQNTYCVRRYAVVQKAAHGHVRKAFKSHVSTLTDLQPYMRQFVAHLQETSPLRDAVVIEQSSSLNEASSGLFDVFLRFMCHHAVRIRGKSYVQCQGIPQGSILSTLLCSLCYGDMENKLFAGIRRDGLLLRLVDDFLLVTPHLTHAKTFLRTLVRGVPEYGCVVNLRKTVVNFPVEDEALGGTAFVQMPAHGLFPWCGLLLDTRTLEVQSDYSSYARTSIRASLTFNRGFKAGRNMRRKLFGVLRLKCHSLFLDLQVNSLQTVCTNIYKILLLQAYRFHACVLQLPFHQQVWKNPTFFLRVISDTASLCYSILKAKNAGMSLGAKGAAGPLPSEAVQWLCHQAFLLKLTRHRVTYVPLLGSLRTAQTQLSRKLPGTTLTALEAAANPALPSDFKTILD

[2] = Cytotoxicity against African green monkey Vero cells assessed as cell growth inhibition incubated for 48 hrs by neutral red dye based assay; format: toxicity; conditions: African green monkey (Chlorocebus sabaeus)
Plasmodium falciparum [3] = assay: Antimalarial activity against chloroquine sensitive Plasmodium falciparum D6 assessed as parasite growth inhibition incubated for 72 hrs by Malstat reagent assay; format: functional, organism-based; conditions: D6, 72 h
Plasmodium falciparum [4] = assay: Antimalarial activity against chloroquine resistant Plasmodium falciparum W2 assessed as parasite growth inhibition incubated for 72 hrs by Malstat reagent assay; format: functional, organism-based; conditions: W2, 72 h
[5] = Cytotoxicity against human HeLa cells assessed as cell growth inhibition; format: toxicity, cell-based; conditions: read-out: ID50 (the source's name)
K562 = assay: Cytotoxicity against human K562 cells assessed as cell growth inhibition; format: functional, cell-based
SGC-7901 = assay: Cytotoxicity against human SGC-7901 cells assessed as cell growth inhibition; format: functional, cell-based
Bel-7402 = assay: Cytotoxicity against human Bel-7402 cells assessed as cell growth inhibition; format: functional, cell-based
L5178Y = assay: Cytotoxicity against mouse L5178Y cells assessed as cell growth inhibition; format: functional, cell-based
PC-3 = assay: Cytotoxicity against human PC-3 cells assessed as cell growth inhibition; format: functional, cell-based

In the case of `O=C1CC[C@]2(O)c3c(ccc(O)c31)-c1ccc(O)c3c1[C@H]2[C@H]1O[C@H]1[C@@H]3O`, the IC50 (Leishmania donovani) is reported as 3.1 µg/mL (≈ 8.8 µM).

`O=C1C[C@H](O)[C@@H]2c3c(ccc(O)c31)-c1ccc(O)c3c1[C@@]2(O)C=CC3=O` gave an IC50 (MCF7) of 1.9 µM, an IC50 (HepG2) of 1.9 µM and an IC50 (NCI-H460) of 1.9 µM. The IC50 (SF-268) was 1.9 µM and the IC50 [1] was 30 µM.

`O=C1C[C@H](O)[C@H]2c3c(ccc(O)c31)-c1ccc(O)c3c1[C@@]2(O)[C@H](O)CC3=O` gave an IC50 at 48 h [2] of 9.8 µM, an IC50 (Leishmania donovani) of 4.4 µg/mL (≈ 11.9 µM) and an IC50 (Plasmodium falciparum [3]) of 4.2 µg/mL (≈ 11.4 µM). For the same compound, the IC50 (Plasmodium falciparum [4]) was 3.6 µg/mL (≈ 9.77 µM).

With `CO[C@H]1CC(=O)c2c(O)ccc3c2[C@@]1(O)[C@@H]1c2c-3ccc(O)c2[C@@H](O)[C@@H]2O[C@@H]21` the IC50 at 48 h [2] was 12.5 µM, the IC50 (Leishmania donovani) was 1.4 µg/mL (≈ 3.66 µM) and the IC50 (Plasmodium falciparum [3]) was 3.2 µg/mL (≈ 8.37 µM). For the same compound, the IC50 (Plasmodium falciparum [4]) was 2.5 µg/mL (≈ 6.54 µM).

Compound `O=C1C[C@H](O)[C@@H]2c3c(ccc(O)c31)-c1ccc(O)c3c1[C@@]2(O)CCC3=O` [ALTERTOXIN I] has a GI50 [5] of 20 µg/mL (≈ 56.8 µM).

Work on `O=C1C[C@@H](O)[C@]2(O)c3c(ccc(O)c31)-c1ccc(O)c3c1[C@@H]2[C@H]1O[C@@H]1[C@@H]3O` yielded an IC50 (Leishmania donovani) of 2.5 µg/mL (≈ 6.79 µM).

In the case of `O=C1CCc2c3c4c(cc(O)cc4c4ccc(O)c1c24)[C@H](O)CC3`, the IC50 (K562) is reported as 83.1 µM, the IC50 (SGC-7901) is reported as 27.5 µM and the IC50 (Bel-7402) is reported as 40.9 µM.

Compound `O=C1CC[C@]2(O)c3c(ccc(O)c31)-c1ccc(O)c3c1[C@H]2[C@H]1O[C@H]1C3=O` has an IC50 (L5178Y) of 6.2 µM, a GI50 [5] of 0.5 µg/mL (≈ 1.43 µM) and an IC50 (MCF7) of 1.9 µM. It also gave an IC50 (HepG2) of 1.9 µM, an IC50 (NCI-H460) of 1.9 µM and an IC50 (SF-268) of 1.9 µM. The IC50 (PC-3) was 14.3 µM.

With `O=C1C[C@H](O)[C@@H]2c3c(ccc(O)c31)-c1ccc(O)c3c1[C@@]2(O)[C@H](O)CC3=O` the IC50 (K562) was 53.5 µM.

Source: ChEMBL document CHEMBL5126634, “Naturally Occurring Partially Reduced Perylenequinones from Fungi” (J Nat Prod, 2022)
